Measured values published in ChEMBL document CHEMBL4619767, “Precursor-Directed Biosynthesis and Fluorescence Labeling of Clickable Microcystins” (J Nat Prod, 2020).
Numbered stars: 1 amine (or outer) side, 2 acyl side, 3 side chain; on linkers, the order of the positions; unused ones are H or OH. Bridge positions count the residues as written; N and C are the ends. Square brackets hold non-standard residues; d marks the D form. Peptide text beside a SMILES is read from it. * marks the point of attachment. Adda = CO[C@@H](Cc1ccccc1)[C@@H](C)/C=C(C)/C=C/[C@H](N[*:1])[C@H](C)C(=O)[*:2]; dAsp(3S-Me) = C[C@H](C(=O)[*:3])[C@@H](N[*:1])C(=O)[*:2]; d(γGlu) = O=C(O)[C@@H](CCC(=O)[*:2])N[*:1]; NMeDha = C=C(NC)C(=O)O; Propargyl = C#CC*

Key:
HEK293 [1] = assay: Cytotoxicity against OATP1B3 (-/-) HEK293 cells incubated for 48 hrs by sulforhodamine B assay; format: ADME, cell-based, Homo sapiens
HEK293 [2] = assay: Cytotoxicity against OATP1B1 (-/-) HEK293 cells incubated for 48 hrs by sulforhodamine B assay; format: ADME, cell-based, Homo sapiens
[3] = Drug uptake in OATP1B3 (-/-) HEK293 cells at 100 nM measured up to 8 mins by fluorescence time-lapse microscopy; format: ADME, cell-based; conditions: human, hek293, 8 min, 0.1 µM
[4] = Drug uptake in OATP1B1 (-/-) HEK293 cells at 100 nM measured up to 8 mins by fluorescence time-lapse microscopy; format: ADME, cell-based; conditions: human, hek293, 8 min, 0.1 µM

| SMILES | EC50 (HEK293 [1]) [nM] | EC50 (HEK293 [2]) [nM] | Drug uptake [3] | Drug uptake [4] |
| --- | --- | --- | --- | --- |
| C=C1C(=O)N[C@H](C)C(=O)N[C@@H](Cc2ccc(OCc3cn(-c4cc5ccc(O)cc5oc4=O)nn3)cc2)C(=O)N[C@@H](C(=O)O)[C@H](C)C(=O)N[C@@H](CCCNC(=N)N)C(=O)N[C@@H](/C=C/C(C)=C/[C@H](C)[C@H](Cc2ccccc2)OC)[C@H](C)C(=O)N[C@@H](C(=O)O)CCC(=O)N1C | > 2000 | > 2000 | Not Active | Not Active |
| C#CCOc1ccc(C[C@@H]2NC(=O)[C@@H](C)NC(=O)C(=C)N(C)C(=O)CC[C@H](C(=O)O)NC(=O)[C@@H](C)[C@H](/C=C/C(C)=C/[C@H](C)[C@H](Cc3ccccc3)OC)NC(=O)[C@H](CCCNC(=N)N)NC(=O)[C@@H](C)[C@H](C(=O)O)NC2=O)cc1 (R[Adda][d(γGlu)][NMeDha][dA]Y(Propargyl)[dAsp(3S-Me)]-OH; lactam N-7) | > 2000 | > 2000 |  |  |
| C=C1C(=O)N[C@H](C)C(=O)N[C@@H](Cc2ccc(O)cc2)C(=O)N[C@@H](C(=O)O)[C@H](C)C(=O)N[C@@H](CCCNC(=N)N)C(=O)N[C@@H](/C=C/C(C)=C/[C@H](C)[C@H](Cc2ccccc2)OC)[C@H](C)C(=O)N[C@@H](C(=O)O)CCC(=O)N1C (R[Adda][d(γGlu)][NMeDha][dA]Y[dAsp(3S-Me)]-OH; lactam N-7) | > 2000 | > 2000 |  |  |
